Test systems include NCI-H226 lung; NCI-H23 lung; OVCAR-8 ovarian; ACHN renal; COLO 205 colon; SNB-19 CNS; NCI/ADR-RES ovarian; SF-268 CNS; HT29 colon; 786-0 renal; SNB-75 CNS; MDA-MB-435; SK-MEL-2 melanoma; SK-OV-3 ovarian; A549 NSCLC; OVCAR-3 ovarian; SF-539 CNS; T-47D breast; SF-295 CNS; OVCAR-4 ovarian.
Holding throughout (experiment): inhibition of tumour cell growth, NCI panel, 48 h

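All cell lines were grown in 96-well plates and treated with compound for 48 hours. TGI: concentration producing complete growth inhibition.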 Bounds are passed on as bounds.

Take `O=c1n(/N=C/c2ccccc2)c(=O)n2n1C1C=CC2CC1`: the TGI with NCI-H226 lung, with NCI-H23 lung, in the assay on OVCAR-8 ovarian, in the assay with ACHN renal, in the assay with COLO 205 colon and in the assay on SNB-19 CNS was > 100 µM in each case. Also, the TGI with NCI/ADR-RES ovarian, in the assay on SF-268 CNS, in the assay with HT29 colon, with 786-0 renal, with SNB-75 CNS and with MDA-MB-435 was > 100 µM each time. The TGI in the assay on SK-MEL-2 melanoma, with SK-OV-3 ovarian, in the assay with A549 NSCLC, in the assay with OVCAR-3 ovarian, in the assay on SF-539 CNS and in the assay with T-47D breast was > 100 µM each time. The TGI in the assay with SF-295 CNS is > 100 µM.

Consider `COc1cc(OCc2ccc3nc(-c4ccccc4)c(N)nc3c2)cc(OC)c1OC`, for which the TGI in the assay with NCI-H226 lung is 50.4 µM; in the assay on OVCAR-4 ovarian it was 34.6 µM; in the assay on OVCAR-8 ovarian, 72.3 µM; in the assay with ACHN renal, 63.8 µM; in the assay with COLO 205 colon, 30.1 µM; in the assay on SNB-19 CNS it was > 100 µM. Moreover, the TGI was 49.6 µM in the assay with NCI/ADR-RES ovarian; > 100 µM with SF-268 CNS; 81.2 µM with 786-0 renal; 59.7 µM in the assay with SNB-75 CNS; 51.2 µM with MDA-MB-435; 43.9 µM with SK-MEL-2 melanoma. Moreover, the TGI worked out at 61.2 µM with A549 NSCLC; 42.1 µM in the assay on OVCAR-3 ovarian; 44.2 µM in the assay on SF-539 CNS; 42.5 µM with T-47D breast; 68.7 µM in the assay with SF-295 CNS.

Turning to `COc1ccc(OC)c2sc(N3C(=O)/C(=C/Cc4ccco4)N=C3c3ccccc3)nc12`, the TGI is > 100 µM in the assay on OVCAR-4 ovarian; > 100 µM with OVCAR-8 ovarian; 73 µM with ACHN renal; > 100 µM in the assay on COLO 205 colon; > 100 µM in the assay on SNB-19 CNS; > 100 µM in the assay with NCI/ADR-RES ovarian. Further, the TGI with SF-268 CNS was > 100 µM; in the assay with HT29 colon, > 100 µM; in the assay with 786-0 renal, > 100 µM; in the assay with SNB-75 CNS, 57.8 µM; in the assay with MDA-MB-435 it was 60.8 µM; in the assay on SK-MEL-2 melanoma it was 67.3 µM. Further, the TGI in the assay with SK-OV-3 ovarian is > 100 µM; with A549 NSCLC, > 100 µM; in the assay with OVCAR-3 ovarian, > 100 µM; in the assay on SF-539 CNS it was > 100 µM; with T-47D breast it was 79.8 µM; in the assay on SF-295 CNS, > 100 µM.

Take `O=C(c1ccc(Cl)cc1Cl)N(C(=O)N1CCC(c2ccccc2)CC1)c1ccccc1`: the TGI in the assay with NCI-H226 lung, with NCI-H23 lung, in the assay with OVCAR-8 ovarian, in the assay on ACHN renal, with COLO 205 colon and in the assay with SNB-19 CNS was > 100 µM throughout. Also, the TGI in the assay with NCI/ADR-RES ovarian, with HT29 colon, in the assay on 786-0 renal, in the assay with SNB-75 CNS, in the assay with MDA-MB-435 and with SK-MEL-2 melanoma was > 100 µM throughout. Further, the TGI with SK-OV-3 ovarian, in the assay with A549 NSCLC, in the assay with OVCAR-3 ovarian, in the assay with SF-539 CNS, in the assay with T-47D breast and with SF-295 CNS was > 100 µM throughout.

For `C=C(c1ccccc1)C1ON(C)CCc2cc(OC)c(OC)cc21` (centres undefined), the TGI in the assay on NCI-H226 lung, in the assay on NCI-H23 lung, in the assay on OVCAR-8 ovarian, with ACHN renal, with COLO 205 colon and with SNB-19 CNS was > 100 µM in each case. The TGI with NCI/ADR-RES ovarian, in the assay with SF-268 CNS, with HT29 colon, with 786-0 renal, with SNB-75 CNS and with MDA-MB-435 was > 100 µM throughout. For the same compound, the TGI in the assay with SK-OV-3 ovarian, in the assay with A549 NSCLC, with OVCAR-3 ovarian, in the assay with SF-539 CNS, in the assay on T-47D breast and with SF-295 CNS was > 100 µM each time.

For the compound `CCOC(=O)/C(C)=C\[C@@]1(C)O[C@@H](C)[C@@](C)(OC(C)=O)[C@@H]1OC(C)=O`, the TGI in the assay on NCI-H226 lung was > 100 µM; in the assay with OVCAR-4 ovarian, > 100 µM; with NCI-H23 lung, 77.1 µM; in the assay on OVCAR-8 ovarian it was > 100 µM; with ACHN renal it was > 100 µM; in the assay on COLO 205 colon, > 100 µM. Besides, the TGI in the assay on SNB-19 CNS, with NCI/ADR-RES ovarian, in the assay on SF-268 CNS, with HT29 colon, in the assay on 786-0 renal and in the assay on MDA-MB-435 was > 100 µM throughout. The TGI with SK-MEL-2 melanoma was > 100 µM; with SK-OV-3 ovarian, > 100 µM; in the assay with A549 NSCLC, > 100 µM; with OVCAR-3 ovarian, > 100 µM; in the assay with SF-539 CNS, > 100 µM; in the assay with T-47D breast it was 59.8 µM. The TGI in the assay with SF-295 CNS was > 100 µM.

Take `CSC1=N[C@H](c2ccccc2)CS1`: the TGI in the assay with OVCAR-4 ovarian, in the assay with NCI-H23 lung, in the assay on ACHN renal, in the assay on COLO 205 colon, in the assay with SNB-19 CNS and in the assay with NCI/ADR-RES ovarian was > 100 µM in each case. In addition, the TGI in the assay on HT29 colon, in the assay with 786-0 renal, in the assay on SNB-75 CNS, in the assay with MDA-MB-435, in the assay on SK-MEL-2 melanoma and in the assay with A549 NSCLC was > 100 µM in each case. In addition, the TGI with OVCAR-3 ovarian, in the assay with SF-539 CNS, with T-47D breast and in the assay on SF-295 CNS was > 100 µM each time.

As to `N#CC1(C#N)C2CCCCC23OC(=N)C1(C#N)C(c1ccco1)O3` (centres undefined), the TGI in the assay on NCI-H226 lung was > 100 µM; in the assay with NCI-H23 lung, 70.5 µM; in the assay on OVCAR-8 ovarian, 73.6 µM; with ACHN renal, 94.2 µM; in the assay with COLO 205 colon it was 31.6 µM; with SNB-19 CNS, > 100 µM. Besides, the TGI is > 100 µM with NCI/ADR-RES ovarian; 67.4 µM with SF-268 CNS; > 100 µM with HT29 colon; 31.2 µM in the assay with 786-0 renal; > 100 µM in the assay on SNB-75 CNS; 52.8 µM in the assay on MDA-MB-435. The TGI with SK-MEL-2 melanoma is 45.3 µM; in the assay on SK-OV-3 ovarian it was > 100 µM; in the assay on A549 NSCLC, > 100 µM; with OVCAR-3 ovarian, 33.5 µM; in the assay on SF-539 CNS it was 51.6 µM; in the assay with T-47D breast, 51.8 µM. For the same compound, in the assay on SF-295 CNS, the TGI is > 100 µM.

These data come from PubChem BioAssay (NCI).
